IC50 data for 11 molecules are collected here from patent US11180474B2 (BRISTOL-MYERS SQUIBB COMPANY, priority 2016, dated 2021).

Structures are written as SMILES.

The assay deals with T1, human TLR7 (Homo sapiens, UniProt Q9NYK1).
T1 construct: host or cells: HEK-Blue cells
T1 sequence (Q9NYK1 27-1049): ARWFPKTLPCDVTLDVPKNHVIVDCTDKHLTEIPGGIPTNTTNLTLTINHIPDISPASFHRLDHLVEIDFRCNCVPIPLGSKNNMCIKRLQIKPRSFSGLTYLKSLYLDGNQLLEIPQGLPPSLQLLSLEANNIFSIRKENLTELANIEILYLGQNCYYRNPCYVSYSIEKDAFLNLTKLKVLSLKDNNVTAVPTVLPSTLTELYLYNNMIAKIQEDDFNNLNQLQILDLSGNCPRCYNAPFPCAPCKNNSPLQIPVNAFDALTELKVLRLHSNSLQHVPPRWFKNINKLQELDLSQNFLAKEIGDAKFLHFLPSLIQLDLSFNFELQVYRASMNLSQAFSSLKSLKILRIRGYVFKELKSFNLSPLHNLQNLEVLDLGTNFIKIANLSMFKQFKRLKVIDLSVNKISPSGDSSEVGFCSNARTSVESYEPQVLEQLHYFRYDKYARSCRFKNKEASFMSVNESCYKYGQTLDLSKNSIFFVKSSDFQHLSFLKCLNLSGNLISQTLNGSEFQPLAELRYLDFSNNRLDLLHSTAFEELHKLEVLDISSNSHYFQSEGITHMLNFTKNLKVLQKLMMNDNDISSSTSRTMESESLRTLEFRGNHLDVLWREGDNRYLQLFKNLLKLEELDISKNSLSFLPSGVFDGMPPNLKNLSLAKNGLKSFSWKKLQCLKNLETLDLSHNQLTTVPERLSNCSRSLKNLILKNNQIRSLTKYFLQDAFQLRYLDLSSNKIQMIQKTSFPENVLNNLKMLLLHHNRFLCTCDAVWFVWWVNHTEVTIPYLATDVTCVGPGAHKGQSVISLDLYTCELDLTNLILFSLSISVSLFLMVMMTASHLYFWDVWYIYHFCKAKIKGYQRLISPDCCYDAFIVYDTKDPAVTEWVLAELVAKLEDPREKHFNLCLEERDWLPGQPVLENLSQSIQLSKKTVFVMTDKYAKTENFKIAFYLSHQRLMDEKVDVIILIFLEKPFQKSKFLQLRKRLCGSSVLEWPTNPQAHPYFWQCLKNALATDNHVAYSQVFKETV
As to the kind of experiment: TLR7 inhibition reporter assay (HEK-Blue cells, SEAP reporter, gardiquimod stimulation). It is filed as cell-based. Particulars: HEK-Blue cells overexpressing human TLR7, gardiquimod 7.5 μM. In outline: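 HEK-Blue reporter cells (15,000/well TLR7, 20,000 TLR8) exposed to compound over 0.05 nM–50 μM, agonist-stimulated (R848 for TLR8, gardiquimod for TLR7), 22 h at 37 °C, 5% CO2. SEAP read with HEK-Blue Detection; % inhibition relative to agonist-plus-DMSO and known-inhibitor controls.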
On the technique in general: Reporter assays use an easily measured gene product as a stand-in for the process of interest.
In the case of `COc1ccc(-c2[nH]c3ccc(C4CCN(C(=O)CO)CC4)cc3c2C(C)C)cc1OC` [Example 313, 1-(4-(2-(3,4-dimethoxyphenyl)-3-isopropyl-1H-indol-5-yl)piperidin-1-yl)-2-hydroxyethanone], 73 nM corresponded to half-maximal inhibition (IC50).

Regarding `COc1ccc(-c2[nH]c3ccc(C4CCN(C(=O)CN5CCC[C@H](C(=O)N(C)C(C)C)C5)CC4)cc3c2C(C)C)cc1OC` [Example 288, (S)-1-(2-(4-(2-(3,4-dimethoxyphenyl)-3-isopropyl-1H-indol-5-yl)piperidin-1-yl)-2-oxoethyl)-N-isopropyl-N-methylpiperidine-3-carboxamide], inhibition was half-maximal at 44 nM (IC50).

For `COc1ccc(-c2[nH]c3ccc(C4CCN(C(=O)CN5CCC[C@@H](C(=O)N6CCN(CCN7CCCC7)CC6)C5)CC4)cc3c2C(C)C)cc1OC` [Example 307, (R)-1-(4-(2-(3,4-dimethoxyphenyl)-3-isopropyl-1H-indol-5-yl)piperidin-1-yl)-2-(3-(4-(2-(pyrrolidin-1-yl)ethyl)piperazine-1-carbonyl)piperidin-1-yl)ethan-1-one], inhibition was half-maximal at 52 nM (IC50).

For the molecule `COc1ccc(-c2[nH]c3ccc(C4CCN(Cc5cnc(C)[nH]5)CC4)cc3c2C(C)C)cc1OC` [Example 266, 2-(3,4-dimethoxyphenyl)-3-isopropyl-5-(1-((2-methyl-1H-imidazol-5-yl)methyl)piperidin-4-yl)-1H-indole], 48 nM corresponded to half-maximal inhibition (IC50).

For the molecule `CNCC(=O)N1CCC(c2ccc3[nH]c(-c4ccc(OC)c(OC)c4)c(C(C)C)c3c2)CC1` [Example 256, 1-(4-(2-(3,4-dimethoxyphenyl)-3-isopropyl-1H-indol-5-yl)piperidin-1-yl)-2-(methylamino)ethan-1-one], the IC50 (usually the midpoint of a concentration-inhibition curve) was 11 nM.

Regarding `COc1ccc(-c2[nH]c3ccc(C4CCN(C(=O)CN5CCC[C@H](C(=O)N6CCCC(O)C6)C5)CC4)cc3c2C(C)C)cc1OC` (stereo partly drawn) [Example 292, 1-(4-(2-(3,4-dimethoxyphenyl)-3-isopropyl-1H-indol-5-yl)piperidin-1-yl)-2-((3S)-3-(3-hydroxypiperidine-1-carbonyl)piperidin-1-yl)ethan-1-one], the half-inhibitory concentration (IC50) worked out at 22 nM.

`CCN(CC)C(=O)C1CCCN(CC(=O)N2CCC(c3ccc4[nH]c(-c5ccc(OC)c(OC)c5)c(C(C)C)c4c3)CC2)C1` (centres unmarked) [Example 224, 1-(2-(4-(2-(3,4-dimethoxyphenyl)-3-isopropyl-1H-indol-5-yl)piperidin-1-yl)-2-oxoethyl)-N,N-diethylpiperidine-3-carboxamide] displayed an IC50 of 46 nM.

Molecule `COc1ccc(-c2[nH]c3ccc(C4CCN(C(=O)CN[C@@H](CO)CC(C)C)CC4)cc3c2C(C)C)cc1OC` [Example 234, (R)-1-(4-(2-(3,4-dimethoxyphenyl)-3-isopropyl-1H-indol-5-yl)piperidin-1-yl)-2-((1-hydroxy-4-methylpentan-2-yl)amino) ethan-1-one] came in with an IC50 of 172 nM.

Molecule `COc1ccc(-c2[nH]c3ccc(C4CCN(C(=O)C[C@H](C)N)CC4)cc3c2C(C)C)cc1OC` [Example 253, (S)-3-amino-1-(4-(2-(3,4-dimethoxyphenyl)-3-isopropyl-1H-indol-5-yl)piperidin-1-yl)butan-1-one] returned an IC50 of 10 nM.

`COc1ccc(-c2[nH]c3ccc(C4CCN(C(=O)CN5CCN(C(C)C)CC5)CC4)cc3c2C(C)C)cc1OC` [Example 240, 1-(4-(2-(3,4-dimethoxyphenyl)-3-isopropyl-1H-indol-5-yl)piperidin-1-yl)-2-(4-isopropylpiperazin-1-yl)ethan-1-one] returned an IC50 of 11 nM.

`COc1ccc(-c2[nH]c3ccc(C4CCN(C(=O)CN5CCC[C@H](C(=O)NCCNC(C)=O)C5)CC4)cc3c2C(C)C)cc1OC` [Example 295, (S)—N-(2-acetamidoethyl)-1-(2-(4-(2-(3,4-dimethoxyphenyl)-3-isopropyl-1H-indol-5-yl)piperidin-1-yl)-2-oxoethyl) piperidine-3-carboxamide] showed an IC50 of 50 nM.
